# Measurements published in patent US20250263370A1 (Tay Therapeutics Limited, priority 2022, published 2025).
# “And” between values parts separate entries of the source, which are not always exact repeats. Equal values may be shown once. Read-outs that look alike come from different tables or passages of the source.
# Tests used:
# [1] = Pharmacokinetics and plasma concentration of Example 101 in Lewis rats after oral administration (CIA study); assay type: in vivo, Lewis rat; conditions: oral
# IL-17A = IL-17A levels by ELISA in stimulated human peripheral blood mononuclear cells; assay type: cell-based; conditions: for IC50: Homo sapiens, PBMC
# Method: (§1) CD2, CD3, and CD28 antibody-coated beads from the T-cell activation/expansion kit (Miltenyi Biotec) were added to the PBMC at a bead-to-cell ratio of 1:2.
# (§2) The mixture of PBMCs and beads were seeded into the wells of the round-bottom 96-well plate at a concentration of 2×10^5 cells/well in a total volume of 200 μL. The cells were cultured for 72 hours at 37° C. and 5% CO2 and then supernatants were collected and IL-17A and IL-22 levels were measured by ELISA. […] The final compound concentration ranged from 30,000 nM to 0.005 nM and the final DMSO concentration per well was 0.3%. PBMCs were seeded at approximately 2×10^5 cells/well in the wells of the 96-well tissue culture plate in a total volume of 190 μL. The plate was incubated for 1 hour at 37° C. and 5% CO2. […] The cells were then cultured for 24 hours at 37° C. and 5% CO2. The supernatant was collected and CXCL10 levels were measured by ELISA.
# IL-22 = IL-22 levels by ELISA in stimulated human peripheral blood mononuclear cells; assay type: cell-based; conditions: for IC50: Homo sapiens, PBMC
# Method: as §1, §2
# [2] = system: collagen-induced arthritis; conditions: rat, in vivo
# [3] = day 0, 10 mg/kg, per test subject
# [4] = day 20, 10 mg/kg, per test subject
structure (smiles),measurement,setting,value
"CNC(=O)c1[nH]c(C(=O)NC2CCC2)cc1O[C@@H](C)c1ccccc1 (stereo in doubt) [Example 101, N^5-cyclobutyl-N^2-methyl-3-(1-phenylethoxy)-1H-pyrrole-2,5-dicarboxamide]",Plasma concentration,"[1]; day 0, 10 mg/kg, 12 h, per test subject",968 ng/mL and 656 ng/mL
same,Plasma concentration,"[1]; day 0, 10 mg/kg, 14 h, per test subject",525 ng/mL and 469 ng/mL
same,AUClast/D,"[1]; day 0, 10 mg/kg, Mean",751 (ng·h/mL)/(mg/kg)
same,AUC—% Extrap—obs,"[1]; day 0, 10 mg/kg, Mean",2.29%
same,AUCInf,[1]; [3],16528 ng·h/mL and 15290 ng·h/mL
same,AUClast,[1]; [3],16397 ng·h/mL and 14408 ng·h/mL
same,AUClast/D,[1]; [3],713 (ng·h/mL)/(mg/kg) and 820 (ng·h/mL)/(mg/kg) and 720 (ng·h/mL)/(mg/kg)
same,AUC—% Extrap—obs,[1]; [3],0.307% and 0.788% and 5.77%
same,Cmax,[1]; [3],2460 ng/mL and 1610 ng/mL
same,MRTInf—obs,[1]; [3],8.69 h and 9.50 h
same,Tmax,[1]; [3],10.0 h
same,Plasma concentration,"[1]; day 20, 10 mg/kg, 0.25 h, per test subject",1400 ng/mL and 1570 ng/mL
same,Plasma concentration,"[1]; day 20, 10 mg/kg, 0.5 h, per test subject",1550 ng/mL and 1730 ng/mL
same,Plasma concentration,"[1]; day 20, 10 mg/kg, 1 h, per test subject",1730 ng/mL and 1590 ng/mL
same,Plasma concentration,"[1]; day 20, 10 mg/kg, 2 h, per test subject",1260 ng/mL and 1320 ng/mL
same,Plasma concentration,"[1]; day 20, 10 mg/kg, 4 h, per test subject",513 ng/mL and 518 ng/mL
same,Plasma concentration,"[1]; day 20, 10 mg/kg, 10 h, per test subject",1710 ng/mL and 1460 ng/mL
same,Plasma concentration,"[1]; day 20, 10 mg/kg, 12 h, per test subject",461 ng/mL and 498 ng/mL
same,AUCInf,[1]; [4],11782 ng·h/mL and 11743 ng·h/mL
same,AUClast,[1]; [4],11699 ng·h/mL and 11548 ng·h/mL
same,AUClast/D,[1]; [4],421 (ng·h/mL)/(mg/kg) and 585 (ng·h/mL)/(mg/kg) and 577 (ng·h/mL)/(mg/kg)
same,AUC—% Extrap—obs,[1]; [4],0.982% and 0.700% and 1.65%
same,Cmax,[1]; [4],1730 ng/mL
same,MRTInf—obs,[1]; [4],6.80 h and 7.09 h
same,T1/2,[1]; [4],2.85 h and 3.54 h
same,Tmax,[1]; [4],1.00 h and 0.500 h
same,IC50,"IL-17A; Test Subject 1, read-out: IL-17A IC50",20.5 nM
same,IC50,"IL-17A; Test Subject 2, read-out: IL-17A IC50",5.7 nM
same,IC50,"IL-17A; Test Subject 3, read-out: IL-17A IC50",58.5 nM
same,IC50,"IL-17A; mean of test subjects, read-out: IL-17A IC50 Mean",28.2 nM
same,"effectiveness in reducing inflammatory biomarkers IL-17A, IL-22, and CXCL-10 relative to GSK620",IL-17A; human PBMC,more effective than GSK620
same,IC50 for IL-17A relative to GSK620,"IL-17A; human PBMC, 72 hours",substantially lower IC50
same,Biomarker selectivity (IL-17 vs. CXCL10),"IL-17A; human PBMC, from mean IC50",>1063 Fold
same,IC50,"IL-22; Test Subject 1, read-out: IL-22 IC50",14.8 nM
same,IC50,"IL-22; Test Subject 2, read-out: IL-22 IC50",26.9 nM
same,IC50,"IL-22; Test Subject 3, read-out: IL-22 IC50",21.1 nM
same,IC50,"IL-22; mean of test subjects, read-out: IL-22 IC50 Mean",20.9 nM
same,IC50 for IL-22 relative to GSK620,"IL-22; human PBMC, 72 hours",substantially lower IC50
same,Biomarker selectivity (IL-22 vs. CXCL10),"IL-22; human PBMC, from mean IC50",>1433 Fold
same,Clinical Observation,[2]; 10 mg/kg,Diarrhea
same,Clinical Observation,[2]; 30 mg/kg,Diarrhea
same,animals that gained weight by the end of the study,"[2]; po, 3 mg/kg",7/8
same,body weight over the course of the study,"[2]; po, 3 mg/kg","weight gain over the first 13 days of the study, similar to animals in groups 2 and 4, followed by weight loss over the remaining days"
same,diarrhea over the 21-day period,"[2]; po, 3 mg/kg",did not have diarrhea
same,"increase in body weight, day 21 compared to day 0","[2]; po, 3 mg/kg",1.7%
same,animals that either gained no weight or lost weight,"[2]; po, 10 mg/kg",5/8
same,animals that gained weight by the end of the study,"[2]; po, 10 mg/kg",3/8
same,animals that had diarrhea (for a single day) over the 21-day period,"[2]; po, 10 mg/kg",Two different animals
same,body weight over the course of the study,"[2]; po, 10 mg/kg","modest weight gains over the first 10-11 days of the study, followed by weight loss"
same,body weight relative to CIA + vehicle (group 2),"[2]; po, 10 mg/kg","significantly decreased relative to group 2 on days 6-7 and 10-18 (p<0.01), and on days 9 and 19-21 (p<0.05)"
same,"weight change, day 21 compared to day 0","[2]; po, 10 mg/kg",approximately 0.5%
same,animals that either lost weight or gained no weight,"[2]; po, 30 mg/kg",5/8
same,animals that gained weight by the end of the study,"[2]; po, 30 mg/kg",3/8
same,animals that had diarrhea over the 21-day period,"[2]; po, 30 mg/kg",Four different animals
same,body weight over the course of the study,"[2]; po, 30 mg/kg","modest weight gains over the first 10-11 days of the study, followed by weight loss"
same,body weight relative to CIA + vehicle (group 2),"[2]; po, 30 mg/kg","significantly decreased relative to group 2 on days 6-7 and 9-18 (p<0.01), and on days 5 and 19-21 (p<0.05)"
same,"weight change, day 21 compared to day 0","[2]; po, 30 mg/kg",approximately 0.5%
